Data taken from ChEMBL document CHEMBL1148949, “(2S,3R)-2-aminododecan-3-ol, a new antifungal agent from the ascidian Clavelina oblonga” (2004).
Converted amounts (≈) assume the structure as drawn.

Legend:
[1] = tested on: Candida albicans; experiment: Antifungal activity against Candida albicans ATCC 10231; format: functional
[2] = tested on: Nakaseomyces glabratus; experiment: Antifungal activity against Candida glabrata; format: functional

CCCCCCCCC[C@@H](O)[C@H](C)N
MIC [1]: 0.7 µg/mL (≈ 3.48 µM) | MIC [2]: 30 µg/mL (≈ 149 µM)

CC(=O)N1CCN(c2ccc(OCC3COC(Cn4ccnc4)(c4ccc(Cl)cc4Cl)O3)cc2)CC1 (centres undefined) [KETOCONAZOLE]
MIC [1]: 0.01 µg/mL (≈ 0.0188 µM)

NYSTATIN
MIC [1]: 1 µg/mL
